Source: patent US6358964B1, “Adenosine, A3 receptor modulators” (priority 2000, dated 2002)

Target: T1, human recombinant A3 adenosine receptors (Homo sapiens, UniProt P0DMS8)
T1 construct: expressed in transfected cells; host or cells: CHO cells
T1 sequence (P0DMS8 1-318): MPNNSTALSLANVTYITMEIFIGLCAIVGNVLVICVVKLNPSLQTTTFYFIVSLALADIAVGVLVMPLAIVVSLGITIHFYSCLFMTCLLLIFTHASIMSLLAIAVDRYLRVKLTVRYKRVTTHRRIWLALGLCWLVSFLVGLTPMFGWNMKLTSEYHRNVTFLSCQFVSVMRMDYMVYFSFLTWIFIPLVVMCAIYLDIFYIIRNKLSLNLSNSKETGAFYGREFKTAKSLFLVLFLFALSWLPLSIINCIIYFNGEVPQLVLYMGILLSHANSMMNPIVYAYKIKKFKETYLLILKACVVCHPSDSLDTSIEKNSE
Test: Human cloned A3 adenosine receptor binding assay ([3H]MRE3008-F20 displacement, CHO membranes)
Conditions: radioligand binding, read-out: binding affinity at human A3 receptors (hA3)
Protocol: Inhibitory binding constant, Ki, values can be calculated from those of IC50 according to the Cheng & Prusoff equation (Cheng and Prusoff, Biochem. Pharmacol. 22:3099-3108 (1973)), Ki=IC50/(1+[C*]/KD*), where [C*] is the concentration of the radioligand and KD* its dissociation constant.
The expression of the human […], A2A and A3 receptors in CHO cells has been previously described (Klotz et al., 1998). The cells were grown adherently and maintained in Dulbecco's modified Eagle's medium with nutrient mixture F12 without nucleosides at 37° C. in 5% CO2/95% air. Cells were split two or three times weekly and then the culture medium was removed for membrane preparations. […]
Binding of [^3H] […] Bound and free radioactivity were separated by filtering the assay mixture through Whatman GF/B glass-fiber filters using a Micro-mate 196 cell harvester (Packard Instrument Company). The filter bound radioactivity was counted on Top Count (efficiency 57%) with Micro-Scint 20. The protein concentration was determined according to a BioRad method (Bradford, M. M., “A rapid and sensitive method for the quantification of microgram quantities of protein utilizing the principle of protein dye-binding,” Anal. Biochem. 72, 248, 1976) with bovine albumin as reference standard.

Compound | Ki
COc1ccc(NC(=O)Nc2nc3ccc(Cl)cc3c3nc(-c4ccco4)nn23)cc1 [Compound 1] | 140 pM
O=C(Nc1cccc(Cl)c1)Nc1nc2ccc(Cl)cc2c2nc(-c3ccco3)nn12 [Compound 2] | 190 pM
